Measurements taken from patent publication EP0930314A1, “p-TOLUENESULFONATE HYDRATE OF THIAZOLINE COMPOUND” (TAISHO PHARMACEUTICAL CO. LTD, priority 1996, dated 1998).

Assays:
[1] = tested on: Blood platelet aggregation; assay: Human in vitro blood platelet aggregation inhibition test (ADP-induced, PRP); format: cell-based; settings: ADP final concentration 7 µM, concentration to inhibit the maximum aggregation by 50 %
Protocol: Citrated blood (the volume ratio of 3.13 % sodium citrate solution to blood is 1:9) was collected from the cubital vein of a healthy human who had not been received any drugs known to affect the function of blood platelet within 2 weeks prior to starting the test. The blood was centrifuged at 120 x g at room temperature for 15 minutes to give platelet rich plasma (PRP) as a supernatant, and further centrifuged at 1500 x g for 10 minutes to give platelet poor plasma (PPP) as a supernatant.
The blood platelet counts of PRP were adjusted to 50 ― 60 x 10^4/µL by diluting with PPP.
Blood platelet aggregation was monitored according to the method of Born G.V.R., [Nature, vol. 194, page 927 (1962)] using adenosine diphosphate (produced by Sigma Co.; hereinafter referred to as "ADP") as an aggregation-inducing substance. That is, a solution of Compound 1 or dihydrate of the compound of Formula (1) as a test drug in dimethyl sulfoxide was adjusted to the desired concentration with a physiological saline solution. […] The mixture was monitored for 5 minutes by using a blood platelet aggregation ability measurement apparatus (Aggricoda TM · PA-3210; made by Kyoto Daiichi Kagaku Co.) and the concentration of the test drug to inhibit the maximum aggregation by 50 % was calculated.

[2] = Hygroscopicity test (change rate of weight after storage at defined relative humidity); format: physicochemical; settings: statement in words; test at 25°C, storage for 30 days, numeric data only in Fig 1
Protocol: Compound 1 obtained in the above example and dihydrate of the compound of Formula (1) were used as test drugs. About 100 mg of the test drug was taken into a weighing bottle and weighed accurately. The weighed test drug in the weighing bottle was stored at 25°C in a decicator which was adjusted to the defined relative humidity by using a desired saturated salt solution or a thermo-hygrostat (Tabaiestec SH-220) which was adjusted to the proper relative humidity.
After storage for 30 days, the test drug was weighed, and the change rate of weight was calculated to use as an index of hygroscopicity.

[3] = target: T1, Purified GPIIb/IIIa receptor (Homo sapiens, UniProt P05106+P08514); assay: Fibrinogen receptor (GPIIb/IIIa) binding inhibition test (solid-phase, ELISA detection of bound fibrinogen); settings: inhibition of fibrinogen (2 µg/ml) binding to solid phased purified GPIIb/IIIa, 4°C, 16 hours
T1 construct: from tissue; the cited Pytela method purifies the receptor from platelet extracts (own knowledge)
T1 sequence (P08514 32-887 limits assumed): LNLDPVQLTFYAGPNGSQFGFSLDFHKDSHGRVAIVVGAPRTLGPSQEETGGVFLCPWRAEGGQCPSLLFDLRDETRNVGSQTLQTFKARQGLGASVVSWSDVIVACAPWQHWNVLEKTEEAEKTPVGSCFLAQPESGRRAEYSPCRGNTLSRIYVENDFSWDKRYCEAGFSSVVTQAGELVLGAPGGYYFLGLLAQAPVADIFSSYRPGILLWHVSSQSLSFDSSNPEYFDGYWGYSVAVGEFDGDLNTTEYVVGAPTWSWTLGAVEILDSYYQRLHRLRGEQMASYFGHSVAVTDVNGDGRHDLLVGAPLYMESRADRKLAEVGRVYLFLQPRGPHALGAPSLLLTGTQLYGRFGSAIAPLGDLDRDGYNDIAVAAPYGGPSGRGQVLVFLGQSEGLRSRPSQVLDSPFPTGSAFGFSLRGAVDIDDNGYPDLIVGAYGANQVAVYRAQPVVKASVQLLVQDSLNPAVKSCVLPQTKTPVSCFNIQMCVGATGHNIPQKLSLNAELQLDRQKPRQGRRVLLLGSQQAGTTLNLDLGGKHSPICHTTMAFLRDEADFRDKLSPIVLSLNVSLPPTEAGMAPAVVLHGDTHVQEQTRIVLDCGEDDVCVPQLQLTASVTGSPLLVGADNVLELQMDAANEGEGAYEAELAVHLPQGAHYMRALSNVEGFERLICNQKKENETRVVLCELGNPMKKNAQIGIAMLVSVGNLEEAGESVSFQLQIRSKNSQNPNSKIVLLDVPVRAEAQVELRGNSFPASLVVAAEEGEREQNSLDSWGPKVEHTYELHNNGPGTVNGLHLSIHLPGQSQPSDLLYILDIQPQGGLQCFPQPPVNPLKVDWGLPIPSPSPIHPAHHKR
T1 sequence (P08514 891-1039 limits assumed): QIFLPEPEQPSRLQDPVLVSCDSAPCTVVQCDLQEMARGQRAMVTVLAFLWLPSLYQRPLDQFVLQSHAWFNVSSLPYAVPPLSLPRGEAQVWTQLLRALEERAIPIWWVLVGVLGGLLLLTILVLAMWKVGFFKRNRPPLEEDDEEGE
T1 sequence (P05106 27-788): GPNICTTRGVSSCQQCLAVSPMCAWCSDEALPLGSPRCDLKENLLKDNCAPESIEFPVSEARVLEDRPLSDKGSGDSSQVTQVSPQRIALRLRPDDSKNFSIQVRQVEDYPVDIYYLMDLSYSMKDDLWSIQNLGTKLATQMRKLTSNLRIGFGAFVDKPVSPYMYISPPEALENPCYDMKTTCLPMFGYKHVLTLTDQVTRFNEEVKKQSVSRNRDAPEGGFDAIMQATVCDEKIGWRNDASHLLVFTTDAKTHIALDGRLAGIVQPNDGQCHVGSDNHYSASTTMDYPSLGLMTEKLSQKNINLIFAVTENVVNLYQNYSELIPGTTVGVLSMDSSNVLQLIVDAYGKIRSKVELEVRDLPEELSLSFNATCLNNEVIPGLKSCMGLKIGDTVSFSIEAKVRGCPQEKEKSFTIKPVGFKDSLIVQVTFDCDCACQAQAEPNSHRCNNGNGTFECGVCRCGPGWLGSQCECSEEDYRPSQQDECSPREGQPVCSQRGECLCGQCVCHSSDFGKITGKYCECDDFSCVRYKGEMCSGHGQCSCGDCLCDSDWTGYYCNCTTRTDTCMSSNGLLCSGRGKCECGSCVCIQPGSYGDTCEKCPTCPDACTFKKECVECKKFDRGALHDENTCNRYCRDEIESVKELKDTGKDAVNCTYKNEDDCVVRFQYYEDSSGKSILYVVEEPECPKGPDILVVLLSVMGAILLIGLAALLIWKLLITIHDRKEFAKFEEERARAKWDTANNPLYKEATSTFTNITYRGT
Protocol: Purified GPIIb/IIIa was prepared by referring to the methods of Pytela et al (Science, 231 (1986) 1559) and a binding measurement system of solid phased GPIIb/IIIa was carried out by referring to the method of Kouns et al (Blood, 80 (1992) 2539).
Purified GPIIb/IIIa receptor was solidified on 96-well microtiter plates by reacting in a solution (pH 7.4) containing 20 mM Tris-hydrochloric acid, 150 mM sodium chloride, 1 mM calcium chloride, 1 mM magnesium chloride and 0.0005 % Triton X-100 at 4°C for 16 hours. The solid phase was then washed once with a solution (pH 7.4) containing 20 mM Tris-hydrochloric acid, 150 mM sodium chloride, 1 mM calcium chloride, 1 mM magnesium chloride and 0.05 % Tween 20 (Buffer B), and blocked by a solution (pH 7.4) containing 20 mM Tris-hydrochloric acid, 150 mM sodium chloride, 1 mM calcium chloride, 1 mM magnesium chloride and 25 % Block Ace in an amount of 150 µL/well at room temperature for 2 hours. […] The amount of the fibrinogen bound to the plates was measured by an enzyme-linked immunosorbent assay method using antifibrinogen primary antibody and peroxidase-labelled secondary antibody to calculate IC50 value. […]

Row | Structure (SMILES) | IC50 [1] | hygroscopicity [2] | IC50 ([1]; Homo sapiens, Platelet) | IC50 [3]
1 | Cc1c(C(=O)NCCC(=O)O)sc(=NC(=O)c2ccc(C(=N)N3CCC4(CC3)OCCO4)cc2)n1C [Dihydrate of the compound of Formula (1), reference compound] | 21.1 nM | – | – | –
2 | Cc1c(C(=O)NCCC(=O)O)sc(=NC(=O)c2ccc(C(=N)N3CCC4(CC3)OCCO4)cc2)n1C [Compound 1, N-(2-carboxyethyl)-2-{4-[(4,4-ethylenedioxy)piperidin-1-yl]imidoylbenzoylimino}-3,4-dimethyl-3H-thiazoline-5-carboxamide p-toluenesulfonate dihydrate] | – | non-hygroscopic | 22.1 nM | 0.0805 nM
